In assay [1] the target is T1, BChE from equine serum (EqBChE) (Equus caballus, UniProt P81908).
T1 construct: BChE from equine serum; purchased Merck (Prague, Czech Republic); host or cells: equine serum (natural source)
The conditions noted are these: parent N-alkyl-2-[4-(trifluoromethyl)benzoyl]hydrazine-1-carboxamides; cited from earlier work.

For assay [2], the target named is T1, BChE from equine serum (EqBChE). Briefly: biochemical. Conditions: for IC50: equine serum BChE, mean ± SD from three independent experiments. The format is biochemical. An excerpt: (§1) Hydrazinecarboxamides 1–3 were examined in vitro for their potential to inhibit the function of AChE (obtained from electric eel) and BChE from equine serum using Ellman’s spectrophotometric method (Table 2). The activities are expressed as IC50 values, i.e., concentrations leading to 50% inhibition of enzymatic activity. Based on the IC50 values for AChE and BChE, we calculated selectivity indexes (SI) that quantified the selectivity for each cholinesterase. SI is the ratio of IC50 for BChE/IC50 for AChE.
(§2) The enzyme activity in the final reaction mixture (2000 µL) was 0.2 U/mL, the concentration of ATCh (or BTCh) was 40 µM, and the concentration of DTNB was 100 µM for all reactions. The investigated derivatives were dissolved in DMSO and then diluted with demineralized water (conductivity 3 μS, equipment supplier BKG Water Treatment, Hradec Králové, Czech Republic) to a concentration of 1000 µM. Five different inhibitor concentrations were used for all tested compounds in the final reaction mixture. The final concentration of DMSO was 0.2%. All experiments were performed in triplicate. The average values of the reaction rate (v0-uninhibited reaction, vi-inhibited reaction) were used to construct the dependence of v0/vi on the concentration of inhibitors. IC50 values were calculated from obtained regression curve equations.
(§3) Acetylcholinesterase originating from electric eels (Electrophorus electricus L.; EeAChE) and butyrylcholinesterase obtained from equine serum (EqBChE) were used.

The target in assay [3] is T2, AChE (obtained from electric eel; EeAChE) (Electrophorus electricus, UniProt O42275).
T2 construct: AChE (obtained from electric eel); purchased Merck (Prague, Czech Republic); host or cells: electric eel (natural source)
T2 sequence (O42275 24-633): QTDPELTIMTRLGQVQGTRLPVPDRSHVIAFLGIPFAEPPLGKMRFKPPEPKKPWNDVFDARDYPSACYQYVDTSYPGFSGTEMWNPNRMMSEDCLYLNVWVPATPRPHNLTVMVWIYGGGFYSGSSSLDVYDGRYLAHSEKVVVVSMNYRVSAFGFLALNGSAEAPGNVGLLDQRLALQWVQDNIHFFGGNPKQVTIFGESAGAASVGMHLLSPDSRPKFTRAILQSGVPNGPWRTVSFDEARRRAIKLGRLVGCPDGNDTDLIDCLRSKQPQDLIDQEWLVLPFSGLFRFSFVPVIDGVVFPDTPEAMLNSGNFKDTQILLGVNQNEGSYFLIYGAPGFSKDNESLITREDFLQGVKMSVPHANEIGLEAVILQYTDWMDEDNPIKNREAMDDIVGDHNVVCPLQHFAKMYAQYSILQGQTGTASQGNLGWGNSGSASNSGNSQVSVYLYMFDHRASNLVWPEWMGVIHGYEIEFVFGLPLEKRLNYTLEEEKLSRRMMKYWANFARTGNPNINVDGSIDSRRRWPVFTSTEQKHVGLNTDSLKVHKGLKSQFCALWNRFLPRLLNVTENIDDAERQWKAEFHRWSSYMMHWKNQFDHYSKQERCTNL
Briefly: biochemical. The format is biochemical. The conditions noted are these: for Selectivity BChE/AChE: SI = ratio of IC50 for BChE/IC50 for AChE, above 1 = stronger inhibition of AChE; for IC50: electric eel AChE, mean ± SD from three independent experiments.
Text: as §1, §2, §3

Where two headings read alike, the source gives them in different places.

T1 sequence (P81908 whole entry): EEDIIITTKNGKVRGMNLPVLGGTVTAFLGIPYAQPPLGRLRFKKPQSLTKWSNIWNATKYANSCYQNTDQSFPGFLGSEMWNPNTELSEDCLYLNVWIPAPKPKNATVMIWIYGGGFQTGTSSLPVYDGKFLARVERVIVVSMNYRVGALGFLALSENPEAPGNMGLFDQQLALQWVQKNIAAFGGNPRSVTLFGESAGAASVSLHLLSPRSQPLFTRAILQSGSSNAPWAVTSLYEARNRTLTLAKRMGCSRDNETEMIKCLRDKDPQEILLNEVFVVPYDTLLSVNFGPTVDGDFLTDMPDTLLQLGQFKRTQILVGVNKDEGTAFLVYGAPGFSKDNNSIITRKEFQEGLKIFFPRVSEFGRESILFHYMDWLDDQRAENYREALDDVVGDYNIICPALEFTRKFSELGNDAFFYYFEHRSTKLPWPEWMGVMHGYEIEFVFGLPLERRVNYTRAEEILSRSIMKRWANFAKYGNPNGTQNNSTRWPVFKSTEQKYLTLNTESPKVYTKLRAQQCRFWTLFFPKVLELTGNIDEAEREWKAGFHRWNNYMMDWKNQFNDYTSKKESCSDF

For the compound `CCCCCCCCCCCCCNC(=O)NNC(=O)c1ccc(C(F)(F)F)cc1` [P2], in assay [1], the IC50 was 277 ± 10.3 µM.
As to `CCCCCCCCCCCCCNC(=O)NNC(=O)c1cccc(Br)c1` [2j, 2-(3-Bromobenzoyl)-N-tridecylhydrazine-1-carboxamide], the IC50 in assay [2] was > 500 µM. Further, in assay [3], the “Selectivity BChE/AChE” value was >11.3 and half-maximal inhibition (IC50) required 44.34 ± 0.1 µM.
The matching figures for `CNC(=O)NNC(=O)c1cccc([N+](=O)[O-])c1` [2e, N-Methyl-2-(3-nitrobenzoyl)hydrazine-1-carboxamide]: > 500 µM, >7.4 and 67.4 ± 1.72 µM.
Turning to `CNC(=O)NNS(=O)(=O)c1ccc(C(F)(F)F)cc1` [3c, N-Methyl-2-{[4-(trifluoromethyl)phenyl]sulfonyl}hydrazine-1-carboxamide], the IC50 stood at 425 ± 13.2 µM in assay [2] and 71.1 ± 0.94 µM in assay [3].
Turning to `CNC(=O)NNC(=O)c1ccc(C)cc1` [1o, N-Methyl-2-(4-methylbenzoyl)hydrazine-1-carboxamide], the IC50 in assay [2] was found to be 284 ± 13.2 µM. In addition, in assay [3], the “Selectivity BChE/AChE” value is 4.6 and half-maximal inhibition (IC50) required 62.29 ± 0.56 µM.
For the compound `CNC(=O)NNC(=O)c1ccc([N+](=O)[O-])cc1` [1k, N-Methyl-2-(4-nitrobenzoyl)hydrazine-1-carboxamide], in assay [2], the IC50 worked out at 178 ± 9.13 µM. Also, in assay [3], the “Selectivity BChE/AChE” value worked out at 3.3 and inhibition was half-maximal at 54 ± 2.21 µM (IC50).
Turning to `CCCCCCCCCCCCCNC(=O)NNC(=O)c1ccc(N(C)C)cc1` [1z, 2-[4-(Dimethylamino)benzoyl]-N-tridecylhydrazine-1-carboxamide], the IC50 in assay [2] came out at 188 ± 2.22 µM; in assay [3], 87.67 ± 0.83 µM. Also, the “Selectivity BChE/AChE” value in assay [3] came out at 2.1.
Regarding `CNC(=O)NNC(=O)c1cccc(Br)c1` [2i, 2-(3-Bromobenzoyl)-N-methylhydrazine-1-carboxamide], the IC50 in assay [2] came to 354 ± 8.79 µM; in assay [3], 51.9 ± 2 µM. Further, in assay [3], the “Selectivity BChE/AChE” value came out at 6.8.
Turning to `CCCCCCCCCCCCCNC(=O)NNC(=O)c1ccccc1[N+](=O)[O-]` [2h, 2-(2-Nitrobenzoyl)-N-tridecylhydrazine-1-carboxamide], in assay [2], the IC50 is > 500 µM. For the same compound, in assay [3], the “Selectivity BChE/AChE” value is given as >9.1 and inhibition was half-maximal at 54.9 ± 1.08 µM (IC50).
Take `CCCCCCCCCCCCCNC(=O)NNC(=O)Cc1ccc(C(F)(F)F)cc1` [3b, N-Tridecyl-2-{2-[4-(trifluoromethyl)phenyl]acetyl}hydrazine-1-carboxamide]: the IC50 in assay [2] is 292.9 ± 1.72 µM. For the same compound, in assay [3], the “Selectivity BChE/AChE” value is 3.6 and the 50% inhibitory concentration (IC50) was found to be 81.69 ± 0.45 µM.
As for `CCCCCCCCCCCCCNC(=O)NNC(=O)c1ccc(C)cc1` [1p, 2-(4-Methylbenzoyl)-N-tridecylhydrazine-1-carboxamide], in assay [2], the IC50 is 277 ± 6.5 µM. For the same compound, in assay [3], the “Selectivity BChE/AChE” value is on record as 2.8 and inhibition was half-maximal at 100 ± 2.1 µM (IC50).
For `CCCCCCCCCCCCCNC(=O)NNC(=O)c1ccc([N+](=O)[O-])cc1` [1l, 2-(4-Nitrobenzoyl)-N-tridecylhydrazine-1-carboxamide], it took 22.31 ± 0.09 µM to reach half-maximal inhibition in assay [2] (IC50). The “Fold superiority of BChE inhibition over parent compound P2” value in assay [2] (vs. P2) was found to be 12.4 ×. In assay [3], the “Selectivity BChE/AChE” value is recorded as 0.4 and 53.7 ± 1.2 µM corresponded to half-maximal inhibition (IC50).
In the case of `CNC(=O)NNC(=O)c1ccccc1C(F)(F)F` [2c, N-Methyl-2-[2-(trifluoromethyl)benzoyl]hydrazine-1-carboxamide], the IC50 in assay [2] came to 296.2 ± 0.87 µM; in assay [3], 61.09 ± 0.03 µM. Moreover, the “Selectivity BChE/AChE” value in assay [3] was determined as 4.8.
The matching figures for `CCCCCCCCCCCCCNC(=O)NNC(=O)c1ccc(C#N)cc1` [1n, 2-(4-Cyanobenzoyl)-N-tridecylhydrazine-1-carboxamide]: 418 ± 15.7 µM, 54.6 ± 1.27 µM and 7.6.
In assay [2], `CNC(=O)NNC(=O)c1ccc(C(C)(C)C)cc1` [1q] gave an IC50 of 281 ± 7.79 µM. In addition, in assay [3], the “Selectivity BChE/AChE” value is on record as 4.7 and the IC50 was found to be 60 ± 2.47 µM.
Turning to `CCCCCCCCCCCCCNC(=O)NNC(=O)c1ccc(Oc2ccccc2)cc1` [1x, 2-(4-Phenoxybenzoyl)-N-tridecylhydrazine-1-carboxamide], the IC50 was 368 ± 14.3 µM in assay [2] and 58.3 ± 3.29 µM in assay [3]. For the same compound, in assay [3], the “Selectivity BChE/AChE” value was 6.3.
On to `CNC(=O)NNC(=O)Cc1ccc(C(F)(F)F)cc1` [3a, N-Methyl-2-{2-[4-(trifluoromethyl)phenyl]acetyl}hydrazine-1-carboxamide], for which the IC50 in assay [2] amounted to 131 ± 9.7 µM. For the same compound, in assay [3], the “Selectivity BChE/AChE” value is on record as 1.9 and half-maximal inhibition (IC50) required 68.51 ± 0.25 µM.
In assay [2], `CNC(=O)NNC(=O)c1ccccc1[N+](=O)[O-]` [2g, N-Methyl-2-(2-nitrobenzoyl)hydrazine-1-carboxamide] displayed a half-maximal inhibitory concentration (IC50) of 191 ± 10.1 µM. Further, in assay [3], the “Selectivity BChE/AChE” value is 3.0 and the midpoint of inhibition, the IC50, lay at 64.3 ± 2.23 µM.
The matching figures for `CNC(=O)NNC(=O)c1ccccc1` [1ee, 2-Benzoyl-N-methylhydrazine-1-carboxamide]: 229.21 ± 0.08 µM, 3.6 and 63.3 ± 1.49 µM.
The matching figures for `CCCCCCCCCCCCCNC(=O)NNC(=O)c1ccc(C(C)(C)C)cc1` [1r]: 57.24 ± 0.23 µM, 0.8 and 75.25 ± 0.43 µM.
For `CCCCCCCCCCCCCNC(=O)NNC(=O)c1ccccc1` [1ff, 2-Benzoyl-N-tridecylhydrazine-1-carboxamide], inhibition in assay [2] was half-maximal at 235 ± 5.57 µM (IC50). Also, in assay [3], the “Selectivity BChE/AChE” value was 3.2 and the concentration for half-maximal inhibition (IC50) worked out at 73.4 ± 2.45 µM.
`CNC(=O)NNC(=O)c1ccc(O)cc1` [1aa, 2-(4-Hydroxybenzoyl)-N-methylhydrazine-1-carboxamide]: the results for the IC50 in assay [2] and in assay [3] were 247 ± 18.4 µM and 67.6 ± 1.3 µM, respectively. Further, the “Selectivity BChE/AChE” value in assay [3] was found to be 3.7.

One may read the IC50 as the concentration at which inhibition is half-maximal.

Source of the values: article PMC9962224, “Novel Inhibitors of Acetyl- and Butyrylcholinesterase Derived from Benzohydrazides: Synthesis, Evaluation and Docking Study” (Pharmaceuticals, 2023).
